This assay has as its target T1, CEP128_C915 (Homo sapiens, UniProt Q6ZU80).
T1 construct: endogenous in cells; host or cells: 22Rv1
T1 sequence (Q6ZU80 1-1094): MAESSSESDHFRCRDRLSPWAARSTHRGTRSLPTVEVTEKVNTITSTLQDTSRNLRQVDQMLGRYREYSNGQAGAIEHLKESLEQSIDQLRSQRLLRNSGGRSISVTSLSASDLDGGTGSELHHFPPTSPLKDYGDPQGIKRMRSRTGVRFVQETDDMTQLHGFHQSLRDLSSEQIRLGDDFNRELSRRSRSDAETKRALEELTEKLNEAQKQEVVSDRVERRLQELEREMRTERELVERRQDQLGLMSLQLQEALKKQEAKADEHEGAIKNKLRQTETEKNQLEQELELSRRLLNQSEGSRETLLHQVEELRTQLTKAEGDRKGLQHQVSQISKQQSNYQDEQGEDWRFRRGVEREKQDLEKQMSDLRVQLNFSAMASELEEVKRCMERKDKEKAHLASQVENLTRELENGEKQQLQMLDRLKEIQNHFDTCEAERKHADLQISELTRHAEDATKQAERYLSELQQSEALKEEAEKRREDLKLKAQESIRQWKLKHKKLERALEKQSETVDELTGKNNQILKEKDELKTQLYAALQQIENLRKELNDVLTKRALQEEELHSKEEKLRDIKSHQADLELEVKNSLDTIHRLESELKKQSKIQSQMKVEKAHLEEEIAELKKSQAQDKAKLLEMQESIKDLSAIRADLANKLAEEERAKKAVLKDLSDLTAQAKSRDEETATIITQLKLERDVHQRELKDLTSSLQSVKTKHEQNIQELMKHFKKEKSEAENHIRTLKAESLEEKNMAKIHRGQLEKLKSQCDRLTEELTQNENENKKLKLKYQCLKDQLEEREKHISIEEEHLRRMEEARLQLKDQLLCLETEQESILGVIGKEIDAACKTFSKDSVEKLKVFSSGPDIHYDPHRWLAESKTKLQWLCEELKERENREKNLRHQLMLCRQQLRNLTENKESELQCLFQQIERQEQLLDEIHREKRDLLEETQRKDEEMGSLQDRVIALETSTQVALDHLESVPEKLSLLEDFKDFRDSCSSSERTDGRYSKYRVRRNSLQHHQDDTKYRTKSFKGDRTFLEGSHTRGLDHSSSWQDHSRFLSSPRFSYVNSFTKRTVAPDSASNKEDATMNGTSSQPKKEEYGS
The assay can be described thus: IA-DTB cysteine engagement. Particulars: 22Rv1 cells, 20 μM probe, 1 h, relative to DMSO. It is filed as binding. The essentials:
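Cells were treated in situ with electrophilic probes, then lysed, and the lysates (2 mg/mL protein) were labeled with IA-DTB for 1 h at ambient temperature. After reduction, alkylation and trypsin digestion, labeled peptides were streptavidin-enriched, TMT-labeled and fractionated. Engagement ratios are probe vs DMSO reporter intensities, averaged across replicates.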

In the case of `C=CC(=O)N1C[C@@H](c2ccc(Br)cc2)[C@H]1C(=O)Nc1cccc2cccnc12` [MY-1A, (2S,3R)-1-acryloyl-3-(4-bromophenyl)-N-(quinolin-8-yl)azetidine-2-carboxamide], the “% engagement CEP128_C915” value is −13%.
In the case of `C=CC(=O)N1C[C@H](c2ccc(Br)cc2)[C@@H]1C(=O)Nc1cccc2cccnc12` [MY-1B, (2R,3S)-1-acryloyl-3-(4-bromophenyl)-N-(quinolin-8-yl)azetidine-2-carboxamide], the “% engagement CEP128_C915” value is reported as 67.5%.
As for `C=CC(=O)N1C[C@H](c2ccc(Br)cc2)[C@H]1C(=O)Nc1cccc2cccnc12` [MY-3A, (2S,3S)-1-acryloyl-3-(4-bromophenyl)-N-(quinolin-8-yl)azetidine-2-carboxamide], the figure is 7%; as for `C=CC(=O)N1C[C@H](c2ccc(Br)cc2)[C@H]1C(=O)Nc1cccc2cccnc12` [MY-3B, (2S,3S)-1-acryloyl-3-(4-bromophenyl)-N-(quinolin-8-yl)azetidine-2-carboxamide], 25%.

For the origin of these results see patent US20250034216A1, “STEREOSELECTIVE COVALENT LIGANDS FOR ONCOGENIC AND IMMUNOLOGICAL PROTEINS” (The Scripps Research Institute, priority 2021, published 2025).
